The results in this text go back to paper PMC8787749, “4-Deoxy-4-fluoro-GalNAz (4FGalNAz) Is a Metabolic Chemical Reporter of O-GlcNAc Modifications, Highlighting the Notable Substrate Flexibility of O-GlcNAc Transferase” (ACS Chemical Biology, 2021).

Structures are written as SMILES.

Holding throughout (test): UDP-Glo UDP release assay
Common to all, as to assay type: biochemical

One assay deals with T1, GALNT1 (Homo sapiens, UniProt Q10472).
T1 construct: truncated, residues 41-559, plasmid hT1-pKN55, secreted from Pichia pastoris SMD1163, Ni-NTA purified
T1 sequence (Q10472 41-559): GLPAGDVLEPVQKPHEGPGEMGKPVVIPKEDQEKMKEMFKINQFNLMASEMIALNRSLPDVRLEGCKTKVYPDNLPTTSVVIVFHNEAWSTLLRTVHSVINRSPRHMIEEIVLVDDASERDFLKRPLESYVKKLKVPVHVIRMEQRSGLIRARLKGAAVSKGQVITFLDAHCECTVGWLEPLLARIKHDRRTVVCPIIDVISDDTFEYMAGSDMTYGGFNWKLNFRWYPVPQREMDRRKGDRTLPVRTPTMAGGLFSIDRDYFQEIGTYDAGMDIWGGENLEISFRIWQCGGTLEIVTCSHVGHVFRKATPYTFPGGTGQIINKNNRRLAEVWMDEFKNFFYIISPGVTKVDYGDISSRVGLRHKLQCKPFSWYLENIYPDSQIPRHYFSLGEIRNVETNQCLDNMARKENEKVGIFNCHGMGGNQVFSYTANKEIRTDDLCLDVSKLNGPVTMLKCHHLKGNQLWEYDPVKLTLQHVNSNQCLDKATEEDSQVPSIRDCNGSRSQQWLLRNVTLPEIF
The conditions noted are these: 50 μM UDP sugar, 50 μM MUC5AC peptide, 10 nM enzyme, 25 mM Tris-HCl pH 7.4, 10 mM MnCl2, room temperature.

Another assay has as its target T2, GALNT2 (Homo sapiens, UniProt Q10471).
T2 construct: truncated, residues 75-572 as printed, hT2-pKN55 vector, secreted from Pichia pastoris SMD1163, Ni-NTA purified
The conditions noted are these: 50 μM UDP sugar, 50 μM MUC5AC peptide, 150 nM enzyme, 25 mM Tris-HCl pH 7.4, 10 mM MnCl2, room temperature.

For another assay, the target named is T3, ncOGT (OGT) (Homo sapiens, UniProt O15294).
T3 sequence (O15294 2-1046): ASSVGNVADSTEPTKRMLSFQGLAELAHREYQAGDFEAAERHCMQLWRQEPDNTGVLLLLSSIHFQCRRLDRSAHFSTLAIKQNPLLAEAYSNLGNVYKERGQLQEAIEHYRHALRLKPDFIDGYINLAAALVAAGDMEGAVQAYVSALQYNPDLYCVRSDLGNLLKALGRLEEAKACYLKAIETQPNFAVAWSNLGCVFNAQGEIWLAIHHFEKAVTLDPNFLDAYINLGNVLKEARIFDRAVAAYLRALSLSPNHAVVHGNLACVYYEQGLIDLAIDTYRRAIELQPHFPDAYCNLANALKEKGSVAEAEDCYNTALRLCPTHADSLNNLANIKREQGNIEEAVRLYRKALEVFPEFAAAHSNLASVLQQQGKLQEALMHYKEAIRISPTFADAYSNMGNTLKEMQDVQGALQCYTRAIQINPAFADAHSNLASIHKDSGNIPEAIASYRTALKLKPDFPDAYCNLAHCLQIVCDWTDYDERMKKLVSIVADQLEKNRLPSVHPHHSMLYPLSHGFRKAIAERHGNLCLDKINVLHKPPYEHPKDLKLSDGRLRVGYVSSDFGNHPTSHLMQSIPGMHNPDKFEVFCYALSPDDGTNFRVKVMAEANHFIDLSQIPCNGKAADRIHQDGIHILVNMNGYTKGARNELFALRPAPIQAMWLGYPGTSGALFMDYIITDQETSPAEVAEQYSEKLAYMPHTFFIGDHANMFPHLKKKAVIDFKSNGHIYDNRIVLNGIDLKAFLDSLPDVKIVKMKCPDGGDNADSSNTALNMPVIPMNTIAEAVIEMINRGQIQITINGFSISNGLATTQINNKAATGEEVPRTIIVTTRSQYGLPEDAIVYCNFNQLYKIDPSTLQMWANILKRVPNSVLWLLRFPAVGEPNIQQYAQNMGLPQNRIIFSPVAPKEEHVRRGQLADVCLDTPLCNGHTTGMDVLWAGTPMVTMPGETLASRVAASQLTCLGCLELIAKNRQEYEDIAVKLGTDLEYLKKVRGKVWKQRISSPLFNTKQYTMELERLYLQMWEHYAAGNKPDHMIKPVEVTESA
As to conditions: 40 μM UDP sugar, 125 μM CKII3K peptide, 300 nM enzyme, 25 mM Tris-HCl pH 7.4, 150 mM NaCl, room temperature.

T2 sequence (Q10471 75-571): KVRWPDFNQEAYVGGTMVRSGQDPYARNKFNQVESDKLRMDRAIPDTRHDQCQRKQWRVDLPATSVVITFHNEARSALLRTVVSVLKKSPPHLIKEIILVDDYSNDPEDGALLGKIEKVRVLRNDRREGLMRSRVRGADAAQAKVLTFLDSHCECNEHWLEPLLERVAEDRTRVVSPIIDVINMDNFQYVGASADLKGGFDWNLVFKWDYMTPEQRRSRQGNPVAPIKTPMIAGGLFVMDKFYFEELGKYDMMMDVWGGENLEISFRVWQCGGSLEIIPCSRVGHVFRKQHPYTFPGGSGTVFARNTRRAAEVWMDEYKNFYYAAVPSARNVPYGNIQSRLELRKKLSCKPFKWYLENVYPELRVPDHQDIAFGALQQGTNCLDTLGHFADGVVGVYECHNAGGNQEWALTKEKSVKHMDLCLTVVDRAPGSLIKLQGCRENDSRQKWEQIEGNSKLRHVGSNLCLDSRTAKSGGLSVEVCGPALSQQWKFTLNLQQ

Consider `CC(=O)N[C@H]1[C@@H](OP(=O)(O)OP(=O)(O)OC[C@H]2O[C@@H](n3ccc(=O)[nH]c3=O)[C@H](O)[C@@H]2O)O[C@H](CO)[C@H](O)[C@@H]1O` [UDP-GalNAc], for which the “UDP-Glo UDP release assay” value on GALNT1 and at GALNT2 was “despite clear turnover of the native UDP-GalNAc substrate” each time.
On to `CC(=O)N[C@H]1[C@@H](OP(=O)(O)OP(=O)(O)OC[C@H]2O[C@@H](n3ccc(=O)[nH]c3=O)[C@H](O)[C@@H]2O)O[C@H](CO)[C@@H](O)[C@@H]1O` [UDP-GlcNAc], for which the “UDP-Glo UDP release assay” value on ncOGT (OGT) is on record as “OGT accepted UDP-GalNAc but less efficiently than UDP-GlcNAc”.
